In this assay the target is T1, μ-opioid receptor (Homo sapiens, UniProt P35372).
T1 construct: host or cells: HEK-293; b235 lists HEK-293, CHO or U-2 OS)
Kind of assay: μ-opioid receptor [35S]GTPγS functional assay. It counts as biochemical. To be noted: for Emax: maximal effect relative to the effect elicited by DAMGO, HEK-293 cells. The protocol:
[^35S]GTPγS functional assays were conducted using freshly thawed μ-receptor membranes prepared in-house from a cell line expressing recombinant t opioid receptor in a HEK-293, CHO or U-2 OS cell background, or purchased from a commercial source (Perkin Elmer, Shelton, Conn.; or DiscovRx, Fremont, Calif.). Assay reactions were prepared by sequentially adding the following reagents to binding buffer (100 mM NaCl, 10 mM MgCl2, 20 mM HEPES, pH 7.4) on ice (final concentrations indicated): membrane protein (0.026 mg/mL), saponin ([…]), GDP ([…]) and [^35S]GTPγS (0.20 nM; Perkin Elmer, Shelton, Conn.). The prepared membrane solution (190 μl/well) was transferred to 96-shallow well polypropylene plates containing 10 al of 20× concentrated stock solutions of the agonist [D-Ala^2, N-methyl-Phe^4 Gly-ol^5]-enkephalin (DAMGO) prepared in dimethyl sulfoxide (DMSO). Plates were incubated for 30 min at about 25° C. with shaking. Reactions were terminated by rapid filtration onto 96-well Unifilter GF/B filter plates (Perkin Elmer, Shelton, Conn.) using a 96-well tissue harvester (Perkin Elmer, Shelton, Conn.) followed by three filtration washes with 200 μl of ice-cold wash buffer (10 mM NaH2PO4, 10 mM Na2HPO4, pH 7.4). Filter plates were subsequently dried at 50° C. for 2-3 hours. BetaScint scintillation cocktail (Perkin Elmer, Shelton, Conn.) was added (50 μl/well) and plates were counted using a Packard Top-Count for 1 min/well. Data were analyzed using the sigmoidal dose-response curve fitting functions in GraphPad PRISM v. 3.0, or an in-house function for non-linear, sigmoidal dose-response curve-fitting.
μGTP EC50 is the concentration of a compound providing 50% of the maximal response for the compound at a μ-opioid receptor.
μ GTP Emax (%) is the maximal effect elicited by a compound relative to the effect elicited by DAMGO, a standard agonist. Generally, the μ GTP Emax (%) value measures the efficacy of a compound to treat or prevent pain or other Conditions.
In TABLE 2, activity response of certain Compounds of the Invention to the μ- and κ-opioid receptors was determined as described above for functional assays using HEK-293 cells.
On the technique in general: GTPγS resists hydrolysis and so accumulates on activated G proteins.

Structures are written as SMILES. A value given as a limit tells only on which side of the number the result lay.

T1 sequence (P35372 whole entry, species assumed): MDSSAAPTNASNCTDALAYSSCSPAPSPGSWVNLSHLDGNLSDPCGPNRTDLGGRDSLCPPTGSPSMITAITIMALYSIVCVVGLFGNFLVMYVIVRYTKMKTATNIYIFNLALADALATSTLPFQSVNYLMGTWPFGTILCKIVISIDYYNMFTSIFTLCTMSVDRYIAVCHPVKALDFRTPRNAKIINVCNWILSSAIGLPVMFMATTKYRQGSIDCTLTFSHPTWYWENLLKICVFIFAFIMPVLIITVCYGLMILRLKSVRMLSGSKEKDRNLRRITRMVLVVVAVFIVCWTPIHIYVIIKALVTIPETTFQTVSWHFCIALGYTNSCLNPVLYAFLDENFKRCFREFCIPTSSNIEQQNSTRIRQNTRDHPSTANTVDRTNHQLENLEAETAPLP

Consider `COC(=O)c1cc2c([nH]c1=O)C[C@]13CCN(C(=O)OC(C)(C)C)[C@H](Cc4ccc(OC)cc41)[C@]3(O)C2` [Compound 3, 15-(tert-Butyl) 9-methyl (6R,6aS,12aR)-6a-hydroxy-2-methoxy-10-oxo-6,6a,7,10,11,12-hexahydro-5H-6,12a-(epiminoethano)naphtho[2,1-g]quinoline-9,15-dicarboxylate], for which the EC50 is over 20000 nM and the Emax is 0%.
The matching figures for `COC(=O)c1cc2c([nH]c1=O)C[C@]13CCN[C@H](Cc4ccc(OC)cc41)[C@]3(O)C2` [Compound 4, Methyl (6R,6aS,12aR)-6a-hydroxy-2-methoxy-10-oxo-6,6a,7,10,11,12-hexahydro-5H-6,12a-(epiminoethano)naphtho[2,1-g]quinoline-9-carboxylate]: over 20000 nM and 20 ± 2.08%.
The corresponding values for `NC(=O)c1cc2c([nH]c1=O)C[C@]13CCN[C@H](Cc4ccc(O)cc41)[C@]3(O)C2` [Compound 6] are 2900 ± 868 nM and 23 ± 1%.
`COc1ccc2c(c1)[C@]13CCN(C)[C@H](C2)[C@@H]1Cc1cc(C(=O)O)c(=O)[nH]c1C3` [Compound 8, (6R,6aR,12aS)-2-methoxy-15-methyl-10-oxo-6,6a,7,10,11,12-hexahydro-5H-6,12a-(epiminoethano)naphtho[2,1-g]quinoline-9-carboxylic acid] had a half-maximal effective concentration (EC50) of 13300 ± 1800 nM and an Emax of 40.7 ± 5.04%.
The corresponding values for `CN1CC[C@]23Cc4[nH]c(=O)c(C(=O)NCc5ccccc5)cc4C[C@H]2[C@H]1Cc1ccc(O)cc13` [Compound 11, (6R,6aR,12aS)-N-benzyl-2-hydroxy-15-methyl-10-oxo-6,6a,7,10,11,12-hexahydro-5H-6,12a-(epiminoethano)naphtho[2,1-g]quinoline-9-carboxamide] are 332 ± 61.7 nM and 32.3 ± 0.88%.
With `CN1CC[C@]23Cc4[nH]c(=O)c(C(=O)N[C@@H]5c6ccccc6C[C@@H]5O)cc4C[C@H]2[C@H]1Cc1ccc(O)cc13` [Compound 13, (6R,6aR,12aS)-2-hydroxy-N-((1R,2S)-2-hydroxy-2,3-dihydro-1H-inden-1-yl)-15-methyl-10-oxo-6,6a,7,10,11,12-hexahydro-5H-6,12a-(epiminoethan)naphth[2-g]quinolinone-9-carboxamide], the EC50 was 484 ± 113 nM and the maximum response (Emax) turned out to be 34 ± 3.21%.
In turn, `CN1CC[C@]23Cc4[nH]c(=O)c(C(=O)N[C@H]5c6ccccc6C[C@H]5O)cc4C[C@H]2[C@H]1Cc1ccc(O)cc13` [Compound 14, (6R,6aR,12aS)-2-hydroxy-N-((1S,2R)-2-hydroxy-2,3-dihydro-1H-inden-yl)-15-methyl-10-oxo-6,6a,7,10,11,12-hexahydro-5H-6,12a-(epiminoethano)naphtho[2,1-g]quinoline-9-carboxamide] showed a 50% effective concentration (EC50) of 432 ± 135 nM and an Emax of 34 ± 2.31%.
The corresponding values for `CN(C(=O)c1cc2c([nH]c1=O)C[C@]13CCN(C)[C@H](Cc4ccc(O)cc41)[C@@H]3C2)C1CCCCC1` [Compound 15, (6R,6aR,12aS)—N-cyclohexyl-2-hydroxy-N,15-dimethyl-10-oxo-6,6a,7,10,11,12-hexahydro-5H-6,12a-(epiminoethano)naphtho[2,1-g]quinoline-9-carboxamide] are 289 ± 34.8 nM and 29.7 ± 3.28%.
`CN1CC[C@]23Cc4[nH]c(=O)c(C(=O)N5CCS(=O)(=O)CC5)cc4C[C@H]2[C@H]1Cc1ccc(O)cc13` [Compound 18, (6R,6aR,12aS)-9-(1,1-dioxidothiomorpholine-4-carbonyl)-2-hydroxy-15-methyl-6,6a,7,12-tetrahydro-5H-6,12a-(epiminoethano)naphtho[2,1-g]quinolin-10(11H)-one]: the response was half-maximal at 462 ± 88.4 nM (EC50) and the Emax was 33.2 ± 3.3%.

A word on the EC50: it is the midpoint of the concentration-response curve. Low readings indicate an effect from little substance, high ones a need for much substance. By Emax is commonly meant the size of the effect at its maximum, as opposed to the concentration needed.
